The text below walks through data of US10039759B2, “Quinolines as FGFR kinase modulators” (priority 2011, dated 2018).

Read-outs that look alike come from different tables or passages of the source.

Experiment [1] has as its target T1, Ba/F3-FGFR1-transfected cells (Homo sapiens, UniProt P11362, cells depend on it, form not given).
T1 construct: other: minus IL3; 24 hours, Alamar Blue
Put plainly: Ba/F3-FGFR1 (minus IL3 or plus IL3) cellular proliferation assay, Alamar Blue. Format: cell-based. The following applies: minus IL3, 24 hours. A digest of the protocol:
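Ba/F3-FGFR1 cells (20000/well) were treated with compound (10 μM–0.1 nM) for 24 h at 37 °C. Alamar Blue was then added for 4 h, with fluorescence read at ex 540/em 590 nm to give IC50/pIC50. A counterscreen was run with 10 ng/ml murine IL3.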
A general note: Alamar Blue is a resazurin reagent that responds to reducing activity.

The next experiment has as its target FGFR2 (h) (Homo sapiens, UniProt P21802). In words: FGFR2 (enzymatic assay), TR-FRET. Format: biochemical. The conditions noted are these: 0.4 μM ATP, 60 min; pIC50 = -log IC50 (M); average if tested multiple times; read-out: FGFR 2 pIC50 (converted).
Experiment [2] deals with T2, Ba/F3-KDR-transfected cells (Homo sapiens, UniProt P35968, cells depend on it, form not given).
T2 construct: BAF3-KDR (MIN IL3 Alamar Blue pIC50); other: minus IL3; 24 hours, Alamar Blue
T2 sequence (P35968 whole entry, change not shown): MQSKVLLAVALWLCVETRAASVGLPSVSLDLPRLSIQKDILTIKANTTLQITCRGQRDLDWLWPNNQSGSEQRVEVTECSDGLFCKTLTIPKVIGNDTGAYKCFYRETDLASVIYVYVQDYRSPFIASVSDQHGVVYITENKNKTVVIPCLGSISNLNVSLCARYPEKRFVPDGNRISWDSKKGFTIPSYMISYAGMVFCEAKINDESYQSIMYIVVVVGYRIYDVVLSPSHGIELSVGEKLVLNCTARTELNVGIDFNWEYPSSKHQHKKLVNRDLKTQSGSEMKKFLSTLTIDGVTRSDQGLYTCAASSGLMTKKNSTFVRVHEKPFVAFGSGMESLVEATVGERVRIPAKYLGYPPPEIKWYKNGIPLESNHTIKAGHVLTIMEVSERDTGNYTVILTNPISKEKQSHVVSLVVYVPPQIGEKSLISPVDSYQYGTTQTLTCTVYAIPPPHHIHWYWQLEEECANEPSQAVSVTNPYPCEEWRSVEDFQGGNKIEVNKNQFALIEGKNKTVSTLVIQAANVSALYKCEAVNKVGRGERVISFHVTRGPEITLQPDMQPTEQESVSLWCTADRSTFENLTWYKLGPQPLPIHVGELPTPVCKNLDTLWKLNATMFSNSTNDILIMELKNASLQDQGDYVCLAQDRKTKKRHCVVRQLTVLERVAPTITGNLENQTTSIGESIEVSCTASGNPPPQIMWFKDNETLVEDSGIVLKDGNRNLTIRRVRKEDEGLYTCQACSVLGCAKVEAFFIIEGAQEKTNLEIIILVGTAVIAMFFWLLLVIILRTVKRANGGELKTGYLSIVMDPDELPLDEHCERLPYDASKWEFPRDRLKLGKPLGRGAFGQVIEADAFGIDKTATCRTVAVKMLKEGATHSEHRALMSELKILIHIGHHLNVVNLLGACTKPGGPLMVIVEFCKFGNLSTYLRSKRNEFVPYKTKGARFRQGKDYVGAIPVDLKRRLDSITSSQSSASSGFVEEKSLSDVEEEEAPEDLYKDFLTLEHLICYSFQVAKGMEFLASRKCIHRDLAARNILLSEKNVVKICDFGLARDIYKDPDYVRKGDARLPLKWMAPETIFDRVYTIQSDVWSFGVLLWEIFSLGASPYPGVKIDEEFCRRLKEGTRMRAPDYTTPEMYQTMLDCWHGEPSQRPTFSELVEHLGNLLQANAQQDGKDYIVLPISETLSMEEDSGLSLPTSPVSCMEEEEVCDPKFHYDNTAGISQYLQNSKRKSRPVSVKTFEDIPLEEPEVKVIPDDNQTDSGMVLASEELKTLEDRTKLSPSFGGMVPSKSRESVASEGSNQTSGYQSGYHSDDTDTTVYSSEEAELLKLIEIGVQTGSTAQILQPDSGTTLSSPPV
In words: Ba/F3-KDR (minus IL3 or plus IL3) cellular proliferation assay, Alamar Blue. Format: cell-based. The following applies: minus IL3; 24 hours, Alamar Blue. An outline of the steps:
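Ba/F3-KDR cells, 20000 per well, exposed to compounds (10 μM to 0.1 nM) for 24 h at 37°C in RPMI/10% FBS, then Alamar Blue for 4 h; fluorescence ex 540/em 590 nm gives IC50 and pIC50. Counterscreen run with 10 ng/ml murine IL3.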

The next experiment concerns the target KDR (h) (Homo sapiens, UniProt P35968). Put plainly: KDR (VEGFR2) (enzymatic assay), TR-FRET. Format: biochemical. The following applies: 3 μM ATP, 120 min; pIC50 = -log IC50 (M); average if tested multiple times; read-out: VEGFR KDR pIC50 (converted). A digest of the protocol: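 Recombinant human KDR (150 ng/ml) phosphorylated 500 nM Btn-Flt3 with 3 μM ATP in HEPES pH 7.5/MnCl2 buffer, 1% DMSO, 120 min at room temperature; EDTA stop with Eu-anti-P-Tyr/SA-XL665 detection, TR-FRET read. IC50 and pIC50 derived from compound concentrations spanning 10 μM to 0.1 nM.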

Experiment [3] has as its target Ba/F3-FGFR4-transfected cells (Homo sapiens, UniProt P22455). Put plainly: Ba/F3-FGFR4 cellular proliferation assay, Alamar Blue. Format: cell-based. The conditions noted are these: 24 hours. An outline of the steps: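 Ba/F3 cells transfected with human FGFR4, 20000 per well in phenol red-free RPMI-1640 with 10% FBS, exposed to compound (10 μM to 0.1 nM) for 24 h at 37 °C. Viability by Alamar Blue (resazurin), 4 h, fluorescence ex 540/em 590 nm; IC50 and pIC50 calculated.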

Another experiment concerns the target FGFR3 (h) (Homo sapiens, UniProt P22607). Put plainly: FGFR3 (enzymatic assay), TR-FRET. Format: biochemical. The following applies: 60 min, pIC50 = -log IC50 (M), average if tested multiple times. (Time-resolved FRET reads energy transfer from a long-lived donor to a nearby acceptor.)
Experiment [4] has as its target T3, Ba/F3-FGFR3-transfected cells (Homo sapiens, UniProt P22607, cells depend on it, form not given).
T3 construct: BAF3-FGFR3 (MIN IL3 Alamar Blue- pIC50); other: minus IL3; 24 hours, Alamar Blue
Put plainly: Ba/F3-FGFR3 (minus IL3 or plus IL3) cellular proliferation assay, Alamar Blue. Format: cell-based. The following applies: minus IL3; 24 hours, Alamar Blue. An outline of the steps:
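Ba/F3-FGFR3 cells (20000 per well) in phenol red-free RPMI-1640 with 10% FBS were exposed to compound (10 μM to 0.1 nM) for 24 h at 37° C. Alamar Blue was then added for 4 h and fluorescence read (ex 540, em 590 nm) to give IC50/pIC50; the counterscreen was run with 10 ng/ml murine IL3.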

For a further experiment, the target named is FGFR4 (h) (Homo sapiens, UniProt P22455). Put plainly: FGFR4 (enzymatic assay), TR-FRET. Format: biochemical. The following applies: FGFR 4 pIC50, 5 μM ATP, 60 min; pIC50 = -log IC50 (M); average if tested multiple times.
Sequence of FGFR4 (h) (P22455 22-802): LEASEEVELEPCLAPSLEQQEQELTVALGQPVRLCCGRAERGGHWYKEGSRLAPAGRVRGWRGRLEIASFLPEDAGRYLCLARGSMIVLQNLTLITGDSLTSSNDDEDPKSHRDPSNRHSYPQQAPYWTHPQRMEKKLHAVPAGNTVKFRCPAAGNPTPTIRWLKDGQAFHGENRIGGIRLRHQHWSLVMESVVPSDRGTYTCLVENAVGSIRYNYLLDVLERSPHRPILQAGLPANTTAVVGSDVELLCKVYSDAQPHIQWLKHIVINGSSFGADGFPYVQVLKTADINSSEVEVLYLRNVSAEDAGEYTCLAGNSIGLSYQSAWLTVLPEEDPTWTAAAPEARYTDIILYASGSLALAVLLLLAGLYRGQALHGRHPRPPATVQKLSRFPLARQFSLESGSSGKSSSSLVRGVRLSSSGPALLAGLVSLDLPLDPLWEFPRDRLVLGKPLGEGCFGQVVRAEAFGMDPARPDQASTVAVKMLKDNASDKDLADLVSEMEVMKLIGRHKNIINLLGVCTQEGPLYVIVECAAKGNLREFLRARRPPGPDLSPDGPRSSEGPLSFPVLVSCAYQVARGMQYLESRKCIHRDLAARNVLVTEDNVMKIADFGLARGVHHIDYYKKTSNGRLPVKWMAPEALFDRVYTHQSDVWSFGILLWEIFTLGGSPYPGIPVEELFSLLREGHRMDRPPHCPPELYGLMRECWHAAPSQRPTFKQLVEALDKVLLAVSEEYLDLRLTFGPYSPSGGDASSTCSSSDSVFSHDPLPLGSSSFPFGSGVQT
Where [5] appears, read: 25 μM ATP, read-out: hFGFR 3 pIC50 (converted).

Sequence of KDR (h) (P35968 20-1356): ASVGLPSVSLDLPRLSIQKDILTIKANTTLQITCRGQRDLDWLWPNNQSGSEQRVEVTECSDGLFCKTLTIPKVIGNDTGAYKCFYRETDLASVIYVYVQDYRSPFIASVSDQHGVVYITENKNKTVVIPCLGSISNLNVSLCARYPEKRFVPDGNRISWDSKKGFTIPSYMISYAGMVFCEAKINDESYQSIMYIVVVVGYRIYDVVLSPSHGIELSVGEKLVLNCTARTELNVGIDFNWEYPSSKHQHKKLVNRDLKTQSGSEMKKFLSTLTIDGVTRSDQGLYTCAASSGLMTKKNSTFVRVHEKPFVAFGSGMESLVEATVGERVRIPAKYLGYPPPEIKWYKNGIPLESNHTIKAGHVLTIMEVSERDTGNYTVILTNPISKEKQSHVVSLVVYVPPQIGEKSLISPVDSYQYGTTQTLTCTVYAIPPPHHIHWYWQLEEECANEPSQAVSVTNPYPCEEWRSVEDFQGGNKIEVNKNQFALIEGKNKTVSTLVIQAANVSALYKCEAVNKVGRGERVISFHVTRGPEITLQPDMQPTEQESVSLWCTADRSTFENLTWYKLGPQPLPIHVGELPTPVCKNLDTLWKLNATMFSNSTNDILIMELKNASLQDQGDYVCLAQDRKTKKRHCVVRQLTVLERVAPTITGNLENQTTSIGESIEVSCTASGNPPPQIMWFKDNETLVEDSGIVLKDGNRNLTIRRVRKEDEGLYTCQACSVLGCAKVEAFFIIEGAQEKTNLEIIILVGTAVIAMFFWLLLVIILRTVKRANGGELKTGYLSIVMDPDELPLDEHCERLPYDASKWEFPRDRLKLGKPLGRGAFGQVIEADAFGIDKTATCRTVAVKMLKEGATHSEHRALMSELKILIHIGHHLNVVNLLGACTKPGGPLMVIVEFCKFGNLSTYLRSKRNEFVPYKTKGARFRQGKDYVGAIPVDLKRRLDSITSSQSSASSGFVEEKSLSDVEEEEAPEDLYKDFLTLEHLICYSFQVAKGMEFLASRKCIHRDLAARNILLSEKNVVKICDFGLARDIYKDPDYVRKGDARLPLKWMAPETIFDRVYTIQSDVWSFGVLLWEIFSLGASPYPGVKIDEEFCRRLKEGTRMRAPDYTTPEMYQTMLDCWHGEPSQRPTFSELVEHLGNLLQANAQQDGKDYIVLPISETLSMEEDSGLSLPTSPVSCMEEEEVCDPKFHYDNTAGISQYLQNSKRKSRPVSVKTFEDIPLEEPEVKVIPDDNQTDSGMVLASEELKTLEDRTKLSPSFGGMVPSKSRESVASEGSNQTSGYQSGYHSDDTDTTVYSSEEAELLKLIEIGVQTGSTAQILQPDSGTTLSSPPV
T3 sequence (P22607 whole entry, change not shown): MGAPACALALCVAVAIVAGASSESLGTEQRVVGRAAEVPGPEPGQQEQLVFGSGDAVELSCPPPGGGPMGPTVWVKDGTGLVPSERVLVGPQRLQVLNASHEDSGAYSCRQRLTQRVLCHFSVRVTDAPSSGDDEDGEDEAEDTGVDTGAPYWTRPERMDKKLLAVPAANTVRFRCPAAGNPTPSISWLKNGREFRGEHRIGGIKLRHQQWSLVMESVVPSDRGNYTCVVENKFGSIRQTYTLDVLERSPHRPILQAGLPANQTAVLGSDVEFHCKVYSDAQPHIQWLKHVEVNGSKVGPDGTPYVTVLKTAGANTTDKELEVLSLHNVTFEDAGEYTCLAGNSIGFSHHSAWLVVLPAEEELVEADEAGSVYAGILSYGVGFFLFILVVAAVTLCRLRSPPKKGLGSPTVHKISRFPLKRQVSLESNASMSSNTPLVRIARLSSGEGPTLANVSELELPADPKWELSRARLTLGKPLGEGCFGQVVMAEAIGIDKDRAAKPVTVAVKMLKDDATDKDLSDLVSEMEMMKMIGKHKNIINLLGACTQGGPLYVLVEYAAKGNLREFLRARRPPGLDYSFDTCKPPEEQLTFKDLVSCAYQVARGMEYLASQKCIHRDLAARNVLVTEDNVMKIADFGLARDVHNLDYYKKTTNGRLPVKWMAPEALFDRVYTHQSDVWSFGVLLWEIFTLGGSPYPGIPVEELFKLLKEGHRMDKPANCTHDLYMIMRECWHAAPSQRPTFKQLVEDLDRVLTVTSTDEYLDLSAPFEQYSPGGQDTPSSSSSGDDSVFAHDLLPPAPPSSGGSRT
Sequence of FGFR2 (h) (P21802 22-821): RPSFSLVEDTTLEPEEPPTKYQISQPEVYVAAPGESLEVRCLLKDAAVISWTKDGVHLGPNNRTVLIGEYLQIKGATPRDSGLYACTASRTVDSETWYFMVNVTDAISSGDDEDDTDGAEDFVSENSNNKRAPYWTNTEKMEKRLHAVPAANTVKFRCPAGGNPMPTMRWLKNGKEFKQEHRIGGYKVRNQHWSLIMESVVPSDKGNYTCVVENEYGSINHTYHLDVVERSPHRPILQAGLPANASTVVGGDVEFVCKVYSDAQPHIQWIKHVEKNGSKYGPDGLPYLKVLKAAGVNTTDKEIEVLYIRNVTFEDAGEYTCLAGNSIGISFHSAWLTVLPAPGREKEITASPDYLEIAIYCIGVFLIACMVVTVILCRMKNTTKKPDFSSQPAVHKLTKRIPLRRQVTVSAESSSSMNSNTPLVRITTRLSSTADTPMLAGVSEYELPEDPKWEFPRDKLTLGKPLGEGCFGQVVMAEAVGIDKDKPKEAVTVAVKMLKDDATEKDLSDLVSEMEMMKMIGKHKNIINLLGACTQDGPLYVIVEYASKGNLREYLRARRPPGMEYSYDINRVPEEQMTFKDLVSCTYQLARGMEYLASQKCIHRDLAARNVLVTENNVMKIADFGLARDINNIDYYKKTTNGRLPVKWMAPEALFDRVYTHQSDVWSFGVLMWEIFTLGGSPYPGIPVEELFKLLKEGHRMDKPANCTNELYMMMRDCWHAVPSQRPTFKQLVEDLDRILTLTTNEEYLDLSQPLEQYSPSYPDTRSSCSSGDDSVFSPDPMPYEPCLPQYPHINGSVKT

On to `COc1cc(OC)cc(N(CC(O)C(F)(F)F)c2ccc3ncc(-c4cnn(C)c4)cc3c2)c1` (single isomer, unassigned) [Compound 24], for which, in experiment [1], the “BAF3-FGFR1 (MIN IL3 pIC50)” value stood at 7.73. Moreover, the IC50 on FGFR2 (h) was 4.9e-09 M; on KDR (h) it was 2.88e-07 M; at FGFR3 (h) (setting [5]), roughly 1.1e-09 M; on FGFR4 (h), 7.94e-09 M. For the same molecule, in experiment [2], the “BAF3-KDR (MIN IL3 Alamar Blue pIC50)” value worked out at 5.05. Besides, the “BAF3-FGFR 4 (pIC50)” value in experiment [3] is 6.6. The “BAF3-FGFR3 (MIN IL3 Alamar Blue- pIC50)” value in experiment [4] is roughly 7.67.

On to `COc1cc(OC)cc(N(CC(O)C(F)(F)F)c2ccc3ncc(-c4cnn(C)c4)cc3c2)c1` (single isomer, unassigned) [Compound 25], for which the “BAF3-FGFR1 (MIN IL3 pIC50)” value in experiment [1] was found to be 6.57. In addition, the IC50 on FGFR2 (h) was 1.95e-08 M; on KDR (h) it was 5.89e-07 M; on FGFR3 (h) (setting [5]), 5.89e-09 M; on FGFR4 (h) it was 6.03e-08 M. In addition, in experiment [2], the “BAF3-KDR (MIN IL3 Alamar Blue pIC50)” value is less than 5. Besides, the “BAF3-FGFR 4 (pIC50)” value in experiment [3] turned out to be 6.07. The “BAF3-FGFR3 (MIN IL3 Alamar Blue- pIC50)” value in experiment [4] came out at 6.76.

On to `COc1cc(OC)cc(N(CCNC(C)C)c2ccc3ncc(-c4cnn(C)c4)cc3c2)c1` [Compound 1], for which the “BAF3-FGFR1 (MIN IL3 pIC50)” value in experiment [1] was 7.4. The IC50 on FGFR2 (h) is 4.95e-09 M; on KDR (h), 7.41e-08 M; at FGFR3 (h) (setting [5]), 7.94e-09 M; at FGFR4 (h), 1.38e-08 M. Moreover, the “BAF3-KDR (MIN IL3 Alamar Blue pIC50)” value in experiment [2] was found to be 5.635. Besides, the “BAF3-FGFR 4 (pIC50)” value in experiment [3] was found to be 7.19. Further, the “BAF3-FGFR3 (MIN IL3 Alamar Blue- pIC50)” value in experiment [4] is given as 7.555.

With `COc1cc(OC)c(F)c(N(CCNC(C)C)c2ccc3ncc(-c4cnn(C)c4)cc3c2)c1` [Compound 2], in experiment [1], the “BAF3-FGFR1 (MIN IL3 pIC50)” value turned out to be 8.3. For the same molecule, the IC50 at FGFR2 (h) was 3.24e-09 M; at KDR (h), 2.57e-08 M; against FGFR3 (h) (hFGFR 3 pIC50, 25 μM ATP), 3.89e-09 M; against FGFR4 (h), 3.98e-09 M. Further, in experiment [2], the “BAF3-KDR (MIN IL3 Alamar Blue pIC50)” value stood at 6.18. Besides, the “BAF3-FGFR 4 (pIC50)” value in experiment [3] was found to be 7.83. For the same molecule, in experiment [4], the “BAF3-FGFR3 (MIN IL3 Alamar Blue- pIC50)” value was determined as 7.86.

`COc1cc(OC)cc(N(CCO)c2ccc3ncc(-c4cnn(C)c4)cc3c2)c1` [Compound 3]: the “BAF3-FGFR1 (MIN IL3 pIC50)” value in experiment [1] stood at 6.31. For the same molecule, the IC50 at FGFR2 (h) is 1.48e-08 M; on KDR (h), 9.12e-08 M; at FGFR3 (h) (setting [5]) it was 4.17e-09 M; at FGFR4 (h), 3.8e-08 M. Besides, the “BAF3-KDR (MIN IL3 Alamar Blue pIC50)” value in experiment [2] turned out to be 5.65. Also, in experiment [3], the “BAF3-FGFR 4 (pIC50)” value turned out to be 6.11. In experiment [4], the “BAF3-FGFR3 (MIN IL3 Alamar Blue- pIC50)” value was 6.33.

On to `COc1cc(OC)cc(N(CCCO)c2ccc3ncc(-c4cnn(C)c4)cc3c2)c1` [Compound 4], for which the “BAF3-FGFR1 (MIN IL3 pIC50)” value in experiment [1] was 6.26. Further, the IC50 at FGFR2 (h) was 1.35e-08 M; at KDR (h) it was 1.38e-07 M; at FGFR3 (h) (setting [5]) it was 5.89e-09 M; on FGFR4 (h), 3.09e-08 M. In experiment [2], the “BAF3-KDR (MIN IL3 Alamar Blue pIC50)” value is given as 5.45. The “BAF3-FGFR 4 (pIC50)” value in experiment [3] is 5.87. The “BAF3-FGFR3 (MIN IL3 Alamar Blue- pIC50)” value in experiment [4] was determined as 6.17.

As for `COc1cc(OC)cc(N(CCCNCC(F)(F)F)c2ccc3ncc(-c4cnn(C)c4)cc3c2)c1` [Compound 5], the “BAF3-FGFR1 (MIN IL3 pIC50)” value in experiment [1] is recorded as 5.79. Besides, the IC50 at FGFR2 (h) was 3.16e-08 M; on KDR (h) it was 2.45e-07 M; at FGFR3 (h) (setting [5]), 2.29e-08 M; on FGFR4 (h) it was 9.12e-08 M. Moreover, the “BAF3-KDR (MIN IL3 Alamar Blue pIC50)” value in experiment [2] stood at 5.18. The “BAF3-FGFR 4 (pIC50)” value in experiment [3] came out at 5.5. Moreover, the “BAF3-FGFR3 (MIN IL3 Alamar Blue- pIC50)” value in experiment [4] came out at 5.67.

For the molecule `C#CCN(c1cc(OC)cc(OC)c1)c1ccc2ncc(-c3cnn(C)c3)cc2c1` [Compound 6], in experiment [1], the “BAF3-FGFR1 (MIN IL3 pIC50)” value was 5.7. The IC50 was 3.02e-08 M at FGFR2 (h), 4.27e-07 M at KDR (h), 1.35e-08 M at FGFR3 (h) (setting [5]) and 1.51e-07 M on FGFR4 (h). Besides, the “BAF3-KDR (MIN IL3 Alamar Blue pIC50)” value in experiment [2] amounted to 5.07. For the same molecule, the “BAF3-FGFR 4 (pIC50)” value in experiment [3] is 5.4. In addition, the “BAF3-FGFR3 (MIN IL3 Alamar Blue- pIC50)” value in experiment [4] is on record as 5.79.
